According to patent US20070014722A1, “Method of treating human volume expansion mediated hypertension employing resibufogenin” (The Administrators of the Tulane Educational Fund, priority 2005, published 2007):
“And” between values parts separate entries of the source, which are not always exact repeats. Identical values can stand only once. “Also recorded” adds a separate entry of the source.

How the values were obtained:
[1] = test system: Goldblatt 2 kidney, 1 clip model (renin-angiotensin mediated hypertension); test: Blood pressure in Goldblatt 2 kidney, 1 clip rats (vasoconstrictive hypertension model); type: in vivo, rat; conditions: Group III, two rats; about 1.53 micrograms per 100 grams body weight
Description: (§1) In order to confirm the effectiveness of resibufogenin in treating volume expansion mediated hypertension, experiments were performed. Animal models of volume expansion mediated hypertension were created in the laboratory in accordance with guidance provided in “Down-regulation of Phosphorylation of Renal Proximal Brush Border Membrane Protein in DOCA-salt hypertensive rats”. H. Cai et al., J Am Soc Nephrol 5:S26, (1994). These models consisted of the administration of a potent mineralocorticoid desoxycorticosterone (DOCA) to rats whose drinking water had been replaced with 0.9% saline and which had one kidney removed (uninephrectomy) in order to induce volume expansion mediated hypertension. This group of animals is listed as Group I. Group II was the uninephrectomy control group (“time control”). Another group (Group III) utilized the Goldblatt 2 kidney, 1 clip model to induce vasoconstrictive (renin-angiotensin mediated) form of essential hypertension. All of the blood pressures were measured in mm Hg.
In each group, a baseline blood pressure was taken. This is shown in the first column. Subsequently, 10 days to 2 weeks prior to the introduction of resibufogenin, the blood pressure was measured. This appears in the second column. In the third column, the blood pressure was measured 10 days after administration of resibufogenin. […]

[2] = Biological activity as antiangiogenesis agent
[3] = test system: DOCA-salt uninephrectomized rats (volume expansion mediated hypertension); test: Blood pressure in DOCA-salt uninephrectomized rats (volume expansion mediated hypertension model); type: in vivo, rat
Description: as §1
In each group, a baseline blood pressure was taken. This is shown in the first column. Subsequently, 10 days to 2 weeks prior to the introduction of resibufogenin, the blood pressure was measured. This appears in the second column. In the third column, the blood pressure was measured 10 days after administration of resibufogenin. The rats in Groups I and III weighed about 200 to 250 gm with resibufogenin being administered in the amount of about 1.53 micrograms per 100 grams of body weight. […] It is also noted that in the Group II control, that there was no meaningful pattern of reduction in blood pressure.
A dosage of approximately 1.53 micrograms […] with the rats weighing in the range of about 200-250 g was employed daily in order to determine the effectiveness of resibufogenin in the treatment of volume expansion mediated hypertension. The dosage was administered intraperitonially and the rats monitored after about three to four days of treatment. […]
The dosage was administered intraperitonially and the rats monitored after about three to four days of treatment. […]

Structure (SMILES): C[C@]12CC[C@H](O)C[C@H]1CC[C@@H]1[C@@H]2CC[C@]2(C)[C@@H](c3ccc(=O)oc3)C[C@H]3O[C@]132 [Resibufogenin, resibufogenin]
- Blood pressure response to resibufogenin (in words) [1]: neither animal responded to resibufogenin
- Biological activity as an antiangionesis agent [2]: not to be biologically active
- Reduction in blood pressure (in words) ([3]; Group I, four rats, 10 days after administration of resibufogenin): very substantial reduction in blood pressure; also recorded: meaningful reduction in blood pressure
- Blood Pressure After 10 days of Resibufogenin ([3]; Group I, individual rats #1-#4, about 1.53 micrograms per 100 grams body weight daily, intraperitoneal, in DMSO, after 10 days): 85 mmHg and 90 mmHg and 130 mmHg and 100 mmHg
- Reduction in blood pressure after treatment (in words) ([3]; daily intraperitoneal dose, rats monitored after about three to four days of treatment): all of the rats experienced a substantial reduction in blood pressure
